Reference: patent publication US20250270579A1, “PLANTS WITH ALTERED ROOT AND SHOOT ARCHITECTURE AND METHODS FOR OBTAINING AND USING SAME” (IOWA STATE UNIVERSITY RESEARCH FOUNDATION, INC., priority 2024, published 2025)

Key:
[1] = test system: maize primary roots; assay: Proteomic profiling of maize roots with and without auxin treatment; type: in vivo, Zea mays; conditions: 10 μM IAA
Procedure: For proteomics analysis, W22 and pils6-1 kernels were surface sterilized and planted in rolled towels as described above. Two days after planting, ungerminated kernels were removed from the assay. Five-day-old seedlings were removed from the rolled towels and floated on 0.5×LS media supplemented with 10 μM IAA in 0.5×LS or an equal volume of 95% ethanol in 0.5×LS for 1 hour. For each biological replicate, total root tissue from 5 seedlings was excised using a scalpel and pooled prior to flash freezing in liquid nitrogen. Three biological replicates were generated per genotype and treatment.
Proteomics. Protein extraction and peptide generation. Protein extraction and peptide digestion was performed as previously described (Song et al., “Heterotrimeric G-Protein-Dependent Proteome and Phosphoproteome in Unstimulated Arabidopsis Roots,” Proteomics 18: e1800323 (2018), which is hereby incorporated by reference in its entirety). Briefly, total protein was extracted from […] of 5-day-old primary root tissue (W22 and pils6-1) using the phenol-FASP method as previously detailed (Song et al., “Assessment and Refinement of Sample Preparation Methods for Deep and Quantitative Plant Proteome Profiling,” Proteomics 18: e1800220 (2018); Song et al., “Quantitative Profiling of Protein Abundance and Phosphorylation State in Plant Tissues Using Tandem Mass Tags” in Plant Proteomics: Methods and Protocols, Methods in Molecular Biology., J. V. Jorrin-Novo, L. Valledor, M. A. Castillejo, M.-D. Rey, Eds., pp. 147-156 (Springer US, 2020), each of which is hereby incorporated by reference in its entirety). […] Peptide amounts were quantified using the Pierce BCA Protein assay kit […]

[2] = test system: maize primary roots; assay: Auxin response assay (rolled towel), primary root length; type: in vivo, Zea mays; conditions: pils6-1 and pils6-3 roots compared to W22 and B73, 10 μM IAA
Procedure: Auxin response assays were performed using the rolled towel assay as previously described (Draves, “Maize Seedling Growth and Hormone Response Assays Using the Rolled Towel Method,” Current Protocols 2: e562 (2022), which is hereby incorporated by reference in its entirety) using 20-40 biological replicates per genotype and treatment. Maize kernels were surface sterilized with 6% bleach and planted on germination paper and placed vertically in a 2-L beaker with 600 mL of 0.5×Linsmaier and Skoog (LS) media. Seedlings were grown for 3 days after germination (DAG) and then treated with 10 μM indole-3-acetic acid (IAA) or an equal volume 95% ethanol for 7 additional days.

[3] = test system: ZmPILS6; assay: Auxin transport assay in yeast expressing ZmPILS6; type: cell-based, Zea mays; conditions: yeast expressing ZmPILS6 compared to empty vector control
Procedure: Auxin transport assays in yeast. Transport assays of radiolabeled indole-3-acetic acid (^3H-IAA) were performed as previously described (Michniewicz, et al., “Transporter of IBA1 Links Auxin and Cytokinin to Influence Root Architecture,” Developmental Cell 50:599-609.e4 (2019), which is hereby incorporated by reference in its entirety). Briefly, pCC13 was transformed into Saccharomyces cerevisiae strain JBY575. Single yeast colonies were grown in liquid-URA selective media overnight at 30° C. Yeast were resuspended in 0.1M MES (pH 4.6) with 2% dextrose to an OD600 of 5. 100 μL of resuspended cells were added to a 1.5 mL Eppendorf tube and added 100 μL of 50 nM 3H-IAA and incubated at RT for 30 minutes. Yeast cells were centrifuged for 15 seconds before removing the supernatant and washing 3 times with MES solution. Cells were resuspended in 100 μL of MES buffer and ^3H-IAA was measured using a scintillation counter. For each plasmid expressing yeast, 12 biological replicates were statistically analyzed using a t test.

[4] = test system: maize primary roots; assay: In vivo auxin accumulation assay in dissected primary roots; parameters: species or system Zea mays
Procedure: In vivo auxin transport assays. Auxin accumulation assays were performed as previously described (Strader and Bartel, “The Arabidopsis PLEIOTROPIC DRUG RESISTANCE8/ABCG36 ATP Binding Cassette Transporter Modulates Sensitivity to the Auxin Precursor Indole-3-Butyric Acid,” The Plant Cell 21:1992-2007 (2009), which is hereby incorporated by reference in its entirety). […] Sections were equilibrated in 40 μL of uptake buffer (20 mM MES, 10 mM sucrose, and 0.5 mM CaSO4, pH 5.6) for 30 minutes at room temperature (RT). 40 μL of 50 nM 3H-IAA was added to each sample and incubated at RT for 1 hour. Samples were rinsed 3 times with […] of uptake buffer. 3H-IAA in tissue samples was measured using a scintillation counter as previously described (Strader and Bartel, “The Arabidopsis PLEIOTROPIC DRUG RESISTANCE8/ABCG36 ATP Binding Cassette Transporter Modulates Sensitivity to the Auxin Precursor Indole-3-Butyric Acid,” The Plant Cell 21:1992-2007 (2009), which is hereby incorporated by reference in its entirety). Samples were moved to scintillation vials containing CytoScint (MP Biomedicals) and disintegrations per minute (DPM) were measured using a scintillation counter (Beckman Coulter LS-6500).

| SMILES | proteins with altered abundance in response to IAA treatment ([1]; W22 roots, 1 hour) [proteins] | proteins auxin-induced in W22 that are auxin-repressed in pils6-1 ([1]; W22 vs pils6-1 roots) [proteins] | auxin-responsive proteins ([1]; pils6-1 roots, 1 hour) [proteins] | sensitivity of primary root length to exogenous IAA [2] | 3H-IAA accumulation in yeast cells [3] | 3H-IAA accumulation in the elongation zone ([4]; pils6-1 roots (absence of ZmPILS6) compared to W22) | 3H-IAA accumulation in the stele ([4]; pils6-1 roots compared to W22) |
| --- | --- | --- | --- | --- | --- | --- | --- |
| O=C(O)Cc1c[nH]c2ccccc12 [IAA, indole-3-acetic acid] | 178 | 11 | 9 | less sensitive |  |  |  |
| O=C(O)Cc1c[nH]c2ccccc12 [3H-IAA] |  |  |  |  | significant decrease | hyperaccumulates | hypo-accumulates |
